Assay results taken from ChEMBL document CHEMBL1146790, “Structural variations in keto-glutamines for improved inhibition against hepatitis A virus 3C proteinase” (Bioorg Med Chem Lett, 2004).

What follows are compounds tested on 3C proteinase (Hepatitis A virus) (assay: Reversible inhibitory activity against Protease at a concentration 100 uM). Conditions: Hepatovirus A.

Compound	inhibition [%]
COC(=O)c1nnn(CC(=O)[C@H](C[C@@H]2CCNC2=O)NC(=O)[C@H](C)NC(=O)[C@H](C)NC(=O)[C@H](CC(C)C)NC(C)=O)c1C(=O)OC	14
COC(=O)c1nnn(CC(=O)[C@H](CCC(=O)N(C)C)NC(=O)[C@H](C)NC(=O)[C@H](C)NC(=O)[C@H](CC(C)C)NC(C)=O)c1C(=O)OC	9
CC(=O)N[C@@H](CC(C)C)C(=O)N[C@@H](C)C(=O)N[C@@H](C)C(=O)N[C@@H](CCC(=O)N(C)C)C(=O)Cn1nnc(C(=O)O)c1C(=O)O	1
